Measured values reported in patent publication US20120255051A1, “HERBICIDE TOLERANT PLANTS” (priority 2009, published 2012).

Test system: Brassica plants comprising mutant AHAS alleles
Test: Field trial, pre-planting treatment (0, 10, 20, 30 g a.i./ha), two locations in Canada: ERG, EST1, EST2, PPTOX, VIG1, VIG2, VIG3 scores
Type: in vivo, Brassica napus
Description: Tests were set up and conducted to asses the growth and performance of plants comprising AHAS full knock-out alleles, and to further analyze the correlation between the presence of full knockout and missense AHAS genes in Brassica plants and plant growth and herbicide tolerance of the Brassica plants in the field. To this end, the Brassica plants identified in Example 1 and 2 were backcrossed two times with an elite parent line, and subsequently selfed twice to obtain homozygous plants (BC2S2). Plants were grown as row plots in a split plot design with three replicates (main plots=herbicide treatments, subplots=genotypes) at two locations in Canada. Treatment pre-planting was carried out on the soil about two days before sowing with a dose of 0 (treatment A), 10 (treatment B), 20 (treatment C) or 30 (treatment D) g a.i./ha of thiencarbazone methyl. Herbicide tolerance was measured by scoring for different parameters. The parameter emergence (ERG) was scored at the cotyledon stage on a scale 1-9, where 1 means late emergence and 9 means early emergence. Establishment was scored 14 days after sowing (EST1) and 21 days after sowing (EST2). Scores were from 1 to 9, where 1 is the worst establishment (least plants that emerged), and 9 is the best establishment (most plants emerged). Phytotoxicity (PPTOX) was determined after establishment. Plants were evaluated on a scale of 1 to 9, where 1=completely yellowing, 5=50% of plant is yellow and 9=no yellowing. The vigor scores (see above) were determined at 1-2 leaf stage (VIG1), 7 days after VIG1 (VIG2) and 14 days after VIG1 (VIG3). The average values (Av) and standard deviations (SD) of the scores for the different parameters are represented in Table 7a-g.
Further, the contribution of the knock-out allele to herbicide tolerance conferred by the missense allele was calculated. First, the scores were corrected for a possible effect of the growth per se, independent of herbicide treatment. To this end, the scores for treatments B, C and D were divided by the scores for treatment A for the same genotype and for the same parameter (corrected herbicide tolerance scores). Next, the effect of the knock-out allele to these corrected herbicide tolerance scores obtained by the missense allele was calculated. Therefore, the corrected herbicide tolerance scores for the missense—knock-out allele combination was divided by the corrected herbicide tolerance scores for the missense allele—wild-type combination. In case the knock-out allele has no effect on herbicide tolerance conferred by the missense allele, this ratio should be 1. In case the knock-out allele positively contributes to the herbicide tolerance conferred by the missense allele, this ratio should be higher than 1. The results for the contribution of the knock-out allele to herbicide tolerance conferred by the missense allele as calculated above are shown in table 8.

[1] = AHAS1 HETO112, AHAS3 WT, treatment C 20 g a.i./ha pre-planting, Location A
[2] = AHAS1 HETO112, AHAS3 WT, treatment C 20 g a.i./ha pre-planting, Location B
[3] = AHAS1 HETO112, AHAS3 WT, treatment D 30 g a.i./ha pre-planting, Location A
[4] = AHAS1 HETO112, AHAS3 WT, treatment D 30 g a.i./ha pre-planting, Location B
[5] = AHAS1 HETO112/AHAS3 HETO111, 10 g a.i./ha pre-planting (B), Location A
[6] = AHAS1 HETO112/AHAS3 HETO111, 10 g a.i./ha pre-planting (B), Location B
[7] = AHAS1 HETO112/AHAS3 HETO111, 20 g a.i./ha pre-planting (C), Location A
[8] = AHAS1 HETO112/AHAS3 HETO111, 20 g a.i./ha pre-planting (C), Location B
[9] = AHAS1 HETO112/AHAS3 HETO111, 30 g a.i./ha pre-planting (D), Location A
[10] = AHAS1 HETO112/AHAS3 HETO111, 30 g a.i./ha pre-planting (D), Location B
[11] = AHAS1 HETO112/AHAS3 WT, 10 g a.i./ha pre-planting (B), Location A
[12] = AHAS1 HETO112/AHAS3 WT, 10 g a.i./ha pre-planting (B), Location B
[13] = AHAS1 HETO112/AHAS3 WT, 20 g a.i./ha pre-planting (C), Location A
[14] = AHAS1 HETO112/AHAS3 WT, 20 g a.i./ha pre-planting (C), Location B
[15] = AHAS1 HETO112/AHAS3 WT, 30 g a.i./ha pre-planting (D), Location A
[16] = AHAS1 HETO112/AHAS3 WT, 30 g a.i./ha pre-planting (D), Location B
[17] = AHAS1 WT, AHAS3 HETO104, treatment B 10 g a.i./ha pre-planting, Location A
[18] = AHAS1 WT, AHAS3 HETO104, treatment B 10 g a.i./ha pre-planting, Location B
[19] = AHAS1 WT, AHAS3 HETO104, treatment C 20 g a.i./ha pre-planting, Location A
[20] = AHAS1 WT, AHAS3 HETO104, treatment C 20 g a.i./ha pre-planting, Location B
[21] = AHAS1 WT, AHAS3 HETO104, treatment D 30 g a.i./ha pre-planting, Location A
[22] = AHAS1 WT, AHAS3 HETO104, treatment D 30 g a.i./ha pre-planting, Location B

SMILES: COC(=O)c1csc(C)c1S(=O)(=O)NC(=O)n1nc(OC)n(C)c1=O [thiencarbazone-methyl, methyl 4-[(4,5-dihydro-3-methoxy-4-methyl-5-oxo-1H-1,2,4-triazol-1-yl)carbonylsulfamoyl]-5-methylthiophene-3-carboxylate]
- establishment (EST1) score Av, 14 days after sowing (AHAS1 HETO112, AHAS3 WT, treatment B 10 g a.i./ha pre-planting, Location B): 2.33
- emergence (ERG) score Av [1]: 1.00
- establishment (EST1) score Av, 14 days after sowing [1]: 1.00
- emergence (ERG) score Av [2]: 1.00
- establishment (EST1) score Av, 14 days after sowing [2]: 1.33
- emergence (ERG) score Av [3]: 1.00
- establishment (EST1) score Av, 14 days after sowing [3]: 1.00
- emergence (ERG) score Av [4]: 1.00
- establishment (EST1) score Av, 14 days after sowing [4]: 1.00
- establishment (EST2) score, Av [5]: 5.67
- vigor1 (VIG1) score, Av [5]: 6.33
- vigor2 (VIG2) score, Av [5]: 7.33
- establishment (EST2) score, Av [6]: 5.67
- vigor2 (VIG2) score, Av [6]: 6.67
- establishment (EST2) score, Av [7]: 5.33
- vigor2 (VIG2) score, Av [7]: 6.33
- establishment (EST2) score, Av [8]: 5.00
- vigor2 (VIG2) score, Av [8]: 5.33
- establishment (EST2) score, Av [9]: 5.67
- vigor2 (VIG2) score, Av [9]: 6.67
- establishment (EST2) score, Av [10]: 3.67
- vigor1 (VIG1) score, Av [10]: 4.00
- vigor2 (VIG2) score, Av [10]: 5.33
- establishment (EST2) score, Av [11]: 1.67
- phytotoxicity (PPTOX) score, Av [11]: 1.00
- vigor1 (VIG1) score, Av [11]: 1.00
- vigor2 (VIG2) score, Av [11]: 1.00
- establishment (EST2) score, Av [12]: 2.67
- phytotoxicity (PPTOX) score, Av [12]: 1.00
- vigor1 (VIG1) score, Av [12]: 1.33
- vigor2 (VIG2) score, Av [12]: 1.00
- establishment (EST2) score, Av [13]: 1.00
- phytotoxicity (PPTOX) score, Av [13]: 1.00
- vigor1 (VIG1) score, Av [13]: 1.00
- vigor2 (VIG2) score, Av [13]: 1.00
- establishment (EST2) score, Av [14]: 1.67
- phytotoxicity (PPTOX) score, Av [14]: 1.00
- vigor1 (VIG1) score, Av [14]: 1.00
- vigor2 (VIG2) score, Av [14]: 1.00
- establishment (EST2) score, Av [15]: 1.00
- phytotoxicity (PPTOX) score, Av [15]: 1.00
- vigor1 (VIG1) score, Av [15]: 1.00
- vigor2 (VIG2) score, Av [15]: 1.00
- establishment (EST2) score, Av [16]: 1.00
- phytotoxicity (PPTOX) score, Av [16]: 1.00
- vigor1 (VIG1) score, Av [16]: 1.00
- vigor2 (VIG2) score, Av [16]: 1.00
- emergence (ERG) score Av [17]: 2.00
- establishment (EST1) score Av, 14 days after sowing [17]: 2.33
- emergence (ERG) score Av [18]: 2.00
- establishment (EST1) score Av, 14 days after sowing [18]: 3.33
- emergence (ERG) score Av [19]: 1.00
- establishment (EST1) score Av, 14 days after sowing [19]: 1.00
- emergence (ERG) score Av [20]: 1.33
- establishment (EST1) score Av, 14 days after sowing [20]: 2.33
- emergence (ERG) score Av [21]: 1.00
- establishment (EST1) score Av, 14 days after sowing [21]: 1.00
- emergence (ERG) score Av [22]: 1.00
- establishment (EST1) score Av, 14 days after sowing [22]: 1.00
- emergence (ERG) score Av (AHAS1 WT, AHAS3 HETO111 (HETO108+HETO111 series), treatment B 10 g a.i./ha pre-planting, Location A): 5.33
